Results taken from patent US10870639B2, “Pyrimidine compounds and pharmaceutical compositions for preventing or treating cancers including the same” (HANMI PHARM. CO., LTD., priority 2018, dated 2020).

Columns and labels:
[1] = test system: MOLM-13; assay: Cell growth inhibition (MTS), MOLM-13; type: cell-based; details: Homo sapiens, MOLM-13, 72 h, incubation three days
Method: (§1) The human acute myelogenous leukemia […] cell line MOLM-13 (DSMZ no. ACC 554) was incubated in RPM11640 medium supplemented with 20% heat-inactivated FBS at a temperature of 37° C. The incubated cell line was prepared in an amount of 2.0×10^4 cells/100 μL, and then plated on a 96-well plate. The RPMI1640 medium was serially diluted with the test compounds at a concentration in a range of 1 μM to 0.01 nM at a ratio of 1:10. Subsequently, incubation was performed thereon for three days. For the human acute myelogenous leukemia cell line MV-4-11 cell line (ATCC® CRL-9591™), the cells were incubated at a temperature of 37° C. in IMDM medium supplemented with 10% FBS. The incubated cell line was prepared in an amount of 2×10^4 cells/100 μL, and then plated on a 96-well plate. The IMDM medium was treated with cascade dilution of three test compounds at a concentration in a range of 1 μM to 0.01 nM at a rate of 1/10. Subsequently, incubation was performed thereon for three days. MTS test was performed to measure cell viability, and the growth inhibition (GI50) value of the cell line was calculated using GraphPad Prism software.

[2] = test system: MV-4-11; assay: Cell growth inhibition (MTS), MV-4-11; type: cell-based; details: Homo sapiens, MV4-11, 72 h, incubation three days
Method: as §1

[3] = target: FLT3 ITD (Homo sapiens, UniProt P36888, ITD); assay: LanthaScreen kinase binding assay, FLT3 ITD
Method: The inhibitory activity of some of the compounds described above against FLT3-ITD, FLT3 wild type (WT), VEGFR2 (KDR), and SYK kinase was measured.
This experiment was carried out on a 384-well plate in conditions including 50 mM HEPES pH 7.5, 0.01% BRIJ-35, 10 mM MgCl2, 1 mM EGTA, and 1% DMSO.

[4] = Pharmacokinetic profile in mice (p.o. and i.v.); type: in vivo; parameters: AUC: concentration or dose not given beside the values; details: mouse, plasma; for AUC: LC-MS/MS, non-compartment analysis, read-out: Area under the curve (AUC) of mice; for bioavailability: po, BA=(AUC p.o./AUC i.v.)×(Dose i.v./Dose p.o.)×100
Method: After test substances were formulated by using the selected solvents, they were administered orally (p.o.) and intravenously (iv) once for each and a certain amount of blood was taken at a predetermined time, and plasma was isolated from the blood and a concentration analysis was performed thereon by LC-MS/MS. The AUC (drug concentration and an area under the curve) was calculated according to the linear-log trapezoidal summation formula by using the non-compartment analysis of the WinNonlin program through the plasma concentration curves over time. The bioavailability (BA) was calculated by applying the calculated AUC value to the following formula. BA (%)=(AUC p.o./AUC i.v.)×(Dose i.v./Dose p.o.)×100

Sequence of FLT3 ITD (P36888 whole entry, looked up, change not shown): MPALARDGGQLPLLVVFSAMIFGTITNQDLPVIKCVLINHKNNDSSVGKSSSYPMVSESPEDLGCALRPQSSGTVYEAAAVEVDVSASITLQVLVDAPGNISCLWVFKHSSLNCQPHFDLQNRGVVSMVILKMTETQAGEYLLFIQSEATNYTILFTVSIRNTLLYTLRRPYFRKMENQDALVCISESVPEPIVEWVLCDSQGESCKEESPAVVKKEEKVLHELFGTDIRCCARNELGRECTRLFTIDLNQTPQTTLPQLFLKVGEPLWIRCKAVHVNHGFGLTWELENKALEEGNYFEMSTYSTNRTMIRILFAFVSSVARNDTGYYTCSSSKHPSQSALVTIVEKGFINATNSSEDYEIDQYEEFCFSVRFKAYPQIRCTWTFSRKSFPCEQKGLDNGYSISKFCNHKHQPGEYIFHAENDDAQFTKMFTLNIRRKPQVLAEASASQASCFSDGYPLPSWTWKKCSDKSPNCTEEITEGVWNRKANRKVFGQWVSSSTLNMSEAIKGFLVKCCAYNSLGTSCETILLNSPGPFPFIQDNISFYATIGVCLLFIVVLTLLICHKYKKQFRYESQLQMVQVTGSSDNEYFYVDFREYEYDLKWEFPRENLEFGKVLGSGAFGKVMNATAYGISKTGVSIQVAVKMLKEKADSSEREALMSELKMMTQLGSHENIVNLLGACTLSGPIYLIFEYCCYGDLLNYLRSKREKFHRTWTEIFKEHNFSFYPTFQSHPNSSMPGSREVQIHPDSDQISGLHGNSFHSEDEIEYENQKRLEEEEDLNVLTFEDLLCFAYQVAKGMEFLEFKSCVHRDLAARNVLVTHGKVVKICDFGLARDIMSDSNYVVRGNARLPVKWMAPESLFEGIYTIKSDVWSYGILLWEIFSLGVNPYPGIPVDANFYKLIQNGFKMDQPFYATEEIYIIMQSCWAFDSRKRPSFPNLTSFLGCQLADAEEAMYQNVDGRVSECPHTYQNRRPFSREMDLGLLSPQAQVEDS

| Compound | GI50 [1] | GI50 [2] | IC50 [3] | AUC [4] | bioavailability [4] |
| --- | --- | --- | --- | --- | --- |
| Cc1ccc2c(-c3nc(Nc4cc(CN5C[C@@H](C)N[C@H](C)C5)cc(C5CC5)c4)ncc3Cl)c[nH]c2c1 [Example 28, 5-chloro-N-(3-cyclopropyl-5-(((3R,5R)-3,5-dimethylpiperazine-1-yl)methyl)phenyl)-4-(6-methyl-1H-indole-3-yl)pyrimidine-2-amine] | 0.8 nM | < 0.01 nM | – | – | – |
| Cc1ccc2c(-c3nc(Nc4cc(CN5C[C@@H](C)N[C@@H](C)C5)cc(C5CC5)c4)ncc3Cl)c[nH]c2c1O [Example 22, 3-(5-chloro-2-((3-cyclopropyl-5-(((3R,5S)-3,5-dimethylpiperazine-1-yl)methyl)phenyl)amino)pyrimidine-4-yl)-6-methyl-1H-indole-7-ol] | – | – | 2.4 nM | – | – |
| COc1cc(CN2CCN(CCO)CC2)cc(Nc2ncc(Cl)c(-c3c[nH]c4ccccc34)n2)c1 [Control Compound 1] | – | – | – | 95.5 ng·h/mL | 6.6% |
| Cc1ccc2c(-c3nc(Nc4cc(CN5CCN(C(C)(C)CO)CC5)cc(C5CC5)c4)ncc3Cl)c[nH]c2c1 [Control Compound 5] | – | – | – | 1220 ng·h/mL | 25.6% |
| Cc1ccc2c(c1)NC(=O)C2c1nc(Nc2cc(CN3C[C@@H](C)N[C@@H](C)C3)cc(C3CC3)c2)ncc1Cl (stereo partly drawn) [Example 19, 3-(5-chloro-2-((3-cyclopropyl-5-(((3R,5S)-3,5-dimethylpiperazine-1-yl)methyl)phenyl)amino)pyrimidine-4-yl)-6-methylindoline-2-one] | – | – | > 50 nM | – | – |
| OCCN1CCN(Cc2cccc(Nc3ncc(Cl)c(-c4c[nH]c5ccccc45)n3)c2)CC1 [Control Compound 2] | – | – | – | 110 ng·h/mL | 6.7% |
| Cc1cnc(Nc2cc(CN3C[C@@H](C)N[C@@H](C)C3)cc(C3CC3)c2)nc1-c1c[nH]c2ccccc12 [Example 13, N-(3-cyclopropyl-5-(((3R,5S)-3,5-dimethylpiperazine-1-yl)methyl)phenyl)-4-(1H-indole-3-yl)-5-methylpyrimidine-2-amine] | 2.6 nM | 2.1 nM | 8.7 nM | – | – |
| Cc1ccc2c(-c3nc(Nc4cc(CN5CC(C)NC(C)C5)cc(C5CC5)c4)ncc3Cl)c[nH]c2c1 (stereo not drawn) [Example 10, 5-chloro-N-(3-cyclopropyl-5-((3,5-dimethylpiperazine-1-yl)methyl)phenyl)-4-(6-methyl-1H-indole-3-yl)pyrimidine-2-amine] | 5 nM | 2.8 nM | – | – | – |
| C[C@@H]1CN(Cc2cc(Nc3ncc(Cl)c(-c4c[nH]c5ccccc45)n3)cc(C3CC3)c2)CCN1 [Example 6, (R)-5-chloro-N-(3-cyclopropyl-5-((3-methylpiperazine-1-yl)methyl)phenyl)-4-(1H-indole-3-yl)pyrimidine-2-amine] | – | – | 1.8 nM | – | – |
| Cc1ccc2c(-c3nc(Nc4cc(C5CC5)cc(N5CCC(N(C)C)CC5)c4)ncc3Cl)c[nH]c2c1 [Control Compound 3] | – | – | – | 2270 ng·h/mL | 27.3% |
| C[C@@H]1CN(Cc2cc(Nc3ncc(Cl)c(-c4c[nH]c5cc(F)ccc45)n3)cc(C3CC3)c2)C[C@H](C)N1CCO [Example 3, 2-((2R,6S)-4-(3-((5-chloro-4-(6-fluoro-1H-indole-3-yl)pyrimidine-2-yl)amino)-5-cyclopropylbenzyl)-2,6-dimethylpiperazine-1-yl)ethane-1-ol] | 0.4 nM | 0.3 nM | 8.1 nM | – | – |
| CN(C)C1CCN(c2cc(Nc3ncc(Cl)c(-c4c[nH]c5ccccc45)n3)cc(C3CC3)c2)CC1 [Control Compound 4] | – | – | – | 518 ng·h/mL | 27% |
| Cc1ccc2c(-c3nc(Nc4cc(CN5C[C@@H](C)N(O)[C@@H](C)C5)cc(C5CC5)c4)ncc3Cl)c[nH]c2c1 [Example 31, (2R,6S)-4-(3-((5-chloro-4-(6-methyl-1H-indole-3-yl)pyrimidine-2-yl)amino)-5-cyclopropylbenzyl)-2,6-dimethylpiperazine-1-ol] | – | – | 6.9 nM | – | – |
